Test results reported in patent US6080761A, “Inhibition of smooth muscle cell migration by (R)-amlodipine” (Pfizer Inc., priority 1993, dated 2000).
Read-outs that look alike come from different tables or passages of the source.

System: rabbit aortic smooth muscle cells
Assay: aortic explant assay of smooth muscle cell migration induced by platelet-derived growth factor
Assay type: cell-based
Conditions: Oryctolagus cuniculus, read-out: % inhibition of SMC migration from explants
Protocol: In this method uniform pieces of intimal/medial tissue from rabbit aorta were cultured in individual wells of a well plate. Migration was induced by addition of platelet-derived growth factor to the culture. Following a lag phase of several days the smooth muscle cells migrated from the explanted tissue and proliferated.
The distance covered by the outgrowing smooth muscle cells was measured.
This assay was carried out with varying concentrations of test compound added to the culture. The compounds thus tested were the maleate salts of the racemic mixture of R(+) and S(-) amlodipine, the maleate salts of R(+) and S(-) amlodipine separately and the known calcium channel-blocking agents nitrendipine and verapamil.
The results obtained are shown in Table 1, in which the percentage inhibition of smooth muscle cell migration for concentrations of test compound of 1 nanomole and 0.1 nanomole are recorded.

[1] = 0.1 nM test compound, rabbit aortic explants, PDGF-induced migration
[2] = 1 nM test compound, rabbit aortic explants, PDGF-induced migration

SMILES | inhibition at 0.0001 µM [1] [%] | inhibition at 0.001 µM [2] [%] | inhibition at 0.0001 µM [%] | inhibition at 0.001 µM [%]
CCOC(=O)C1=C(COCCN)NC(C)=C(C(=O)OC)C1c1ccccc1Cl (racemic) [Amlodipine (racemate), 3-ethyl-5-methyl-2-(2-aminoethoxy-methyl)-4-(2-chlorophenyl)-1,4-dihydro-6-methylpyridine-3,5-dicarboxylate] | 39 | 33 | – | –
CCOC(=O)C1=C(COCCN)NC(C)=C(C(=O)OC)[C@H]1c1ccccc1Cl [Amlodipine R (+), R(+) isomer of 3-ethyl-5-methyl-2-(2-aminoethoxy-methyl)-4-(2-chlorophenyl)-1,4-dihydro-6-methylpyridine-3,5-dicarboxylate] | 36 | 39 | – | –
CCOC(=O)C1=C(COCCN)NC(C)=C(C(=O)OC)[C@@H]1c1ccccc1Cl [Amlodipine S (-)] | 21 | 30 | – | –
CCOC(=O)C1=C(C)NC(C)=C(C(=O)OC)C1c1cccc([N+](=O)[O-])c1 (stereo not shown) [Nitrendipine, nitrendipine] | 14 | 28 | – | –
COc1ccc(CCN(C)CCCC(C#N)(c2ccc(OC)c(OC)c2)C(C)C)cc1OC (stereo not shown) [Verapamil, verapamil] | – | – | 13 | 22
